In article PMC6272846, “Synthesis and p38 Inhibitory Activity of Some Novel Substituted N,N′-Diarylurea Derivatives” (Molecules, 2016):

Test system: MAPKAPK2
Assay: Inhibition of MAPKAPK2 in GFP-MAPKAPk2_BHK cell model (nuclear translocation)
Assay type: cell-based
Details: GFP-MAPKAPk2_BHK cells
Description: In order to study p38α inhibition in a cell system, we investigated the ability of all compounds to inhibit the phosphorylation of mitogen-activated protein-kinase-activated protein kinase 2 (MAPKAPK2). Each compound was prepared at […] concentrations (1, 3, 10 and 30 nM, 0.1 and 0.3 μM), and the percentages of inhibition were calculated from the numbers of cells after treatment with the different compounds.
GFP-MAPKAPk2_BHK cells were cultured in 96-well plates (2.0 × 10^4/100 μL/well) containing 10% heat-inactivated foetal bovine serum (FBS) and 1 mg/mL G418 at 37 °C in humidified air containing 5% CO2 for 18–24 h. The cells were washed with nutrient solution (100 μL/well) and changed to the compound liquid (100 μL/well). Experiments were set up with the control, and the compound was repeated at each concentration in three wells. The cells were cultured in 96-well plates at 37 °C in humidified air containing 5% CO2 for 90 min. The cells were washed with the dye solution (20 μL/well), and the dyed cells were held for 1 hour at room temperature in the dye liquid. Analysis of nuclear translocation and calculation of the ability of the compounds to inhibit nuclear translocation was performed using the IN Cell Analyzer 1000 Nuclear Trafficking Analysis Module System (GE, Madison, WI, USA). The cultured cells were treated with the obtained compounds in […] concentration grads (1, 3, 10 and 30 nM, 0.1 and 0.3 μM). The inhibitory percentage can be calculated using the amounts of cells after the disposition of the different compounds.

IC50 | Compound
0.0607 ± 0.00231 µM | Cc1ccc(-n2nc(C(C)(C)C)cc2NC(=O)Nc2ccc(Oc3ccc4[nH]ncc4c3)c3c2OCC=C3)cc1 [26a, 1-(5-((1H-Indazol-5-yl)oxy)-2H-chromen-8-yl)-3-(3-(tert-butyl)-1-(p-tolyl)-1H-pyrazol-5-yl)urea]
0.2457 ± 0.00209 µM | CC(C)(C)c1cc(NC(=O)Nc2ccc(Oc3ccc4[nH]ncc4c3)c3c2OCC=C3)n(-c2ccc(S(N)(=O)=O)cc2)n1 [26c, 4-(5-(3-(5-((1H-Indazol-5-yl)oxy)-2H-chromen-8-yl)ureido)-3-(tert-butyl)-1H-pyrazol-1-yl)benzenesulfonamide]
0.0698 ± 0.00208 µM | COc1ccc(-n2nc(C(C)(C)C)cc2NC(=O)Nc2ccc(Oc3ccc4[nH]ncc4c3)c3c2OCC=C3)cc1 [26d, 1-(5-((1H-Indazol-5-yl)oxy)-2H-chromen-8-yl)-3-(3-(tert-butyl)-1-(4-methoxyphenyl)-1H-pyrazol-5-yl)urea]
0.0412 ± 0.00146 µM | CC(C)(C)c1cc(NC(=O)Nc2ccc(Oc3ccc4[nH]ncc4c3)c3c2OCC=C3)n(-c2ccc([N+](=O)[O-])cc2)n1 [26f, 1-(5-((1H-Indazol-5-yl)oxy)-2H-chromen-8-yl)-3-(3-(tert-butyl)-1-(4-nitrophenyl)-1H-pyrazol-5-yl)urea]

Same assay, conditions: GFP-MAPKAPk2_BHK cells; bound given in µM

IC50 | Compound
> 10 µM | Cc1cccc(-n2nc(C(C)(C)C)cc2NC(=O)Nc2ccccc2OCCN2CCOCC2)c1 [28c, 1-(3-(tert-Butyl)-1-(m-tolyl)-1H-pyrazol-5-yl)-3-(2-(2-morpholinoethoxy)phenyl)urea]
> 10 µM | COc1ccc(-n2nc(C(C)(C)C)cc2NC(=O)Nc2ccccc2OCCN2CCOCC2)cc1 [28d, 1-(3-(tert-Butyl)-1-(4-methoxyphenyl)-1H-pyrazol-5-yl)-3-(2-(2-morpholinoethoxy)phenyl)urea]
> 10 µM | CC(C)(C)c1cc(NC(=O)Nc2ccccc2OCCN2CCOCC2)n(-c2ccc(Cl)cc2)n1 [28e, 1-(3-(tert-Butyl)-1-(4-chlorophenyl)-1H-pyrazol-5-yl)-3-(2-(2-morpholinoethoxy)phenyl)urea]
> 10 µM | CC(C)(C)c1cc(NC(=O)Nc2ccccc2OCCN2CCOCC2)n(-c2ccc(Br)cc2)n1 [28f, 1-(1-(4-Bromophenyl)-3-(tert-butyl)-1H-pyrazol-5-yl)-3-(2-(2-morpholinoethoxy)phenyl)urea]
> 10 µM | CC(C)(C)c1cc(NC(=O)Nc2ccccc2OCCN2CCOCC2)n(-c2ccc(F)cc2)n1 [28g, 1-(3-(tert-Butyl)-1-(4-fluorophenyl)-1H-pyrazol-5-yl)-3-(2-(2-morpholinoethoxy)phenyl)urea]
> 10 µM | CC(C)(C)c1cc(NC(=O)Nc2ccccc2OCCN2CCOCC2)n(-c2ccc([N+](=O)[O-])cc2)n1 [28h, 1-(3-(tert-Butyl)-1-(4-nitrophenyl)-1H-pyrazol-5-yl)-3-(2-(2-morpholinoethoxy)phenyl)urea]
> 10 µM | CC(C)(C)c1cc(NC(=O)Nc2ccccc2OCCN2CCOCC2)n(-c2ccc(S(N)(=O)=O)cc2)n1 [28i, 4-(3-(tert-Butyl)-5-(3-(2-(2-morpholinoethoxy)phenyl)ureido)-1H-pyrazol-1-yl)benzenesulfonamide]
> 10 µM | Cc1cccc(-n2nc(C(C)(C)C)cc2NC(=O)Nc2ccccc2Oc2ccc3[nH]ncc3c2)c1 [29c, 1-(2-((1H-Indazol-5-yl)oxy)phenyl)-3-(3-(tert-butyl)-1-(m-tolyl)-1H-pyrazol-5-yl)urea]
> 10 µM | COc1ccc(-n2nc(C(C)(C)C)cc2NC(=O)Nc2ccccc2Oc2ccc3[nH]ncc3c2)cc1 [29d, 1-(2-((1H-Indazol-5-yl)oxy)phenyl)-3-(3-(tert-butyl)-1-(4-methoxyphenyl)-1H-pyrazol-5-yl)urea]
> 10 µM | CC(C)(C)c1cc(NC(=O)Nc2ccccc2Oc2ccc3[nH]ncc3c2)n(-c2ccc(Cl)cc2)n1 [29e, 1-(2-((1H-Indazol-5-yl)oxy)phenyl)-3-(3-(tert-butyl)-1-(4-chlorophenyl)-1H-pyrazol-5-yl)urea]
> 10 µM | CC(C)(C)c1cc(NC(=O)Nc2ccccc2Oc2ccc3[nH]ncc3c2)n(-c2ccc(Br)cc2)n1 [29f, 1-(2-((1H-Indazol-5-yl)oxy)phenyl)-3-(1-(4-bromophenyl)-3-(tert-butyl)-1H-pyrazol-5-yl)urea]
